SMILES strings stand for the structures. A value given as a limit tells only on which side of the number the result lay.

We go through 31 compounds from US7786137B2, “Bicyclic derivatives as modulators of ion channels” (Vertex Pharmaceuticals Incorporated, priority 2005, dated 2010).

Tested on in one assay: not given
Test: not given
The settings on record: neuropathic pain, modest efficacy; cited from earlier work.
In the case of `NCC1(CC(=O)O)CCCCC1` [Gabapentin], the “patients in whom it works” value is 60%.

The next assay concerns the target NaV1.2 (Homo sapiens, UniProt Q99250).
Test: not given
The settings on record: read-out: TTX IC50; cited from earlier work.
As a reminder, the IC50 is the midpoint of a concentration-inhibition curve. In the case of `NC1=N[C@H](O)[C@H]2[C@H]3O[C@]4(O)O[C@@H]([C@@H](O)[C@@]2(N1)[C@@H]4O)[C@]3(O)CO` [TTX, tetrodotoxin], the IC50 is 10 nM.

For a further assay, the target named is NaV1.1 (Homo sapiens, UniProt P35498).
Test: not given
The settings on record: read-out: TTX IC50; cited from earlier work.
In the case of `NC1=N[C@H](O)[C@H]2[C@H]3O[C@]4(O)O[C@@H]([C@@H](O)[C@@]2(N1)[C@@H]4O)[C@]3(O)CO` [TTX, tetrodotoxin], the IC50 was 10 nM.

For the next assay, the target named is T1, NaV1.3 (Homo sapiens, UniProt Q9NY46).
Test: not given
As to conditions: read-out: TTX IC50; cited from earlier work.
Target sequence in this assay (Q9NY46 whole entry, looked up): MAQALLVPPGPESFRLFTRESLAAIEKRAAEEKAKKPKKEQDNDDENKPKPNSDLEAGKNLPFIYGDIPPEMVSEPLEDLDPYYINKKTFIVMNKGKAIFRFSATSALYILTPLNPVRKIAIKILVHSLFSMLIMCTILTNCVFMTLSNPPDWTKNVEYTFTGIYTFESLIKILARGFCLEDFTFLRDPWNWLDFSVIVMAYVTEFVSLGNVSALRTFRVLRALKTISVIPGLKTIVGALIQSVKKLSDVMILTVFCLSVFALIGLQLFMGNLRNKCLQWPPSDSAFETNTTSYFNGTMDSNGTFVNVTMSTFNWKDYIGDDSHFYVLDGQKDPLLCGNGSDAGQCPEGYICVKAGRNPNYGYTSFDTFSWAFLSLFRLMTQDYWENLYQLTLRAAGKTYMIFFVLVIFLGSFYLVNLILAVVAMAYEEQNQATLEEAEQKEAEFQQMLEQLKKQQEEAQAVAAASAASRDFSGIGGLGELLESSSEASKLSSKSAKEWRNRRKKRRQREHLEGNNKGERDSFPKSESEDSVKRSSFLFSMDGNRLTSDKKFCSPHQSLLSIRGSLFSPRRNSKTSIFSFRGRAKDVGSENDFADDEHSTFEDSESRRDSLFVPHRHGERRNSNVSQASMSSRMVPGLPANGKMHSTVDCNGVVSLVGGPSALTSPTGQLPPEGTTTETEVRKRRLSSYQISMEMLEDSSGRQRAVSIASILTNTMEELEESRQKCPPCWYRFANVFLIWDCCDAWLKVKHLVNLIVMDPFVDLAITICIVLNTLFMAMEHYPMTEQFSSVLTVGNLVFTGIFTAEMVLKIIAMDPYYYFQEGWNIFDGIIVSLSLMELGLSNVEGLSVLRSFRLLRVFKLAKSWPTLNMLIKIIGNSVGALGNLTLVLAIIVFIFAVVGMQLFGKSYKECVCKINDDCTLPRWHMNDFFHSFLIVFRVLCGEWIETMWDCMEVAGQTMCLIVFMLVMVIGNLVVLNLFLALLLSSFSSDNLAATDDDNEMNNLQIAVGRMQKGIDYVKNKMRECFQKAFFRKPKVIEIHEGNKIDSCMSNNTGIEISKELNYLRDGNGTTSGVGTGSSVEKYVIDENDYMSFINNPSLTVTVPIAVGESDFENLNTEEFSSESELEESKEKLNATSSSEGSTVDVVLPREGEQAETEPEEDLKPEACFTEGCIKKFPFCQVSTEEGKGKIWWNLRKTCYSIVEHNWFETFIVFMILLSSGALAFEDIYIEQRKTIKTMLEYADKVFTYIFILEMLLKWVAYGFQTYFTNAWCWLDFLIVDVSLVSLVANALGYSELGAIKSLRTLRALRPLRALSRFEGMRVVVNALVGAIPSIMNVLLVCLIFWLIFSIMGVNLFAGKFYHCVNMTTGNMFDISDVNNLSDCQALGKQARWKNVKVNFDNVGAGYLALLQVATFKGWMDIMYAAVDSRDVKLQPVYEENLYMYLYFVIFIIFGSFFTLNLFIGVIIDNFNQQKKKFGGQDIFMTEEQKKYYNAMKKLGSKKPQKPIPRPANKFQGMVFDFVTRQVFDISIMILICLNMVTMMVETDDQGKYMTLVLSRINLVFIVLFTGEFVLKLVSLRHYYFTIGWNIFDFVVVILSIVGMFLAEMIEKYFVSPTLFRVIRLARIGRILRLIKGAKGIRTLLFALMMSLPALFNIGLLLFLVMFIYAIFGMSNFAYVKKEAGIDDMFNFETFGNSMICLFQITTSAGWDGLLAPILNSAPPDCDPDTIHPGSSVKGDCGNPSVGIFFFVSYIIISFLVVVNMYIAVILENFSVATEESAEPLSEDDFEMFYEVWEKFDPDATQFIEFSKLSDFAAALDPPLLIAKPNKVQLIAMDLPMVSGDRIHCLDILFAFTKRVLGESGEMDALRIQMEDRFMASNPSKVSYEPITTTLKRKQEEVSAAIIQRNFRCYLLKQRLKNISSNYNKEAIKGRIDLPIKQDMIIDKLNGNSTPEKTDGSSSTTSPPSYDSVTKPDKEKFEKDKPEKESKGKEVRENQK
In the case of `NC1=N[C@H](O)[C@H]2[C@H]3O[C@]4(O)O[C@@H]([C@@H](O)[C@@]2(N1)[C@@H]4O)[C@]3(O)CO` [TTX, tetrodotoxin], the IC50 was 15 nM.

A further assay concerns the target NaV1.6 (Homo sapiens, UniProt Q9UQD0).
Test: not given
The settings on record: read-out: TTX IC50; cited from earlier work.
With `NC1=N[C@H](O)[C@H]2[C@H]3O[C@]4(O)O[C@@H]([C@@H](O)[C@@]2(N1)[C@@H]4O)[C@]3(O)CO` [TTX, tetrodotoxin], the IC50 is 6 nM.

The target of a further assay is NaV1.8 (Homo sapiens, UniProt Q9Y5Y9).
Test: not given
As to conditions: read-out: TTX IC50; cited from earlier work.
Turning to `NC1=N[C@H](O)[C@H]2[C@H]3O[C@]4(O)O[C@@H]([C@@H](O)[C@@]2(N1)[C@@H]4O)[C@]3(O)CO` [TTX, tetrodotoxin], the IC50 is over 50000 nM.

The next assay deals with T1, NaV1.3. The experiment in a line: VIPR optical membrane potential assay, NaV1.3 inhibition. It is filed as cell-based. Also on record: expressed in transfected cells; host or cells: HEK293. As to conditions: activity against NaV 1.3 channel.
Target sequence in this assay (Q9NY46 whole entry): as the sequence (Q9NY46 whole entry, looked up) above
For `O=C(CCCOc1ccc(Cl)cc1Cl)N1CCCc2cc(S(=O)(=O)Nc3nccs3)ccc21` [Compound 180], the IC50 is under 2000 nM.

`Cc1ccc(OCC(=O)N2CCc3cc(S(=O)(=O)Nc4nccs4)ccc32)cc1` [Compound 181] had an IC50 of under 2000 nM.

On to `O=C(COc1ccc(Cl)cc1Cl)n1ccc2cc(S(=O)(=O)Nc3nccs3)ccc21` [Compound 183], for which the IC50 lay within 2000 to 5000 nM.

With `COc1ccc(NCC(=O)N2CCc3cc(S(=O)(=O)Nc4nccs4)ccc32)cc1F` [Compound 184], the IC50 was over 5000 nM.

The compound `CC(Oc1ccccc1Cl)C(=O)N1CCc2cc(S(=O)(=O)Nc3ncns3)ccc21` (stereo not drawn) [Compound 185] displayed an IC50 of under 2000 nM.

Compound `CC(Oc1ccc(OC(F)(F)F)cc1)C(=O)N1Cc2ccc(S(=O)(=O)Nc3nccs3)cc2C1` (stereo not drawn) [Compound 186] came in with an IC50 of under 2000 nM.

As for `COc1ccc(CCC(=O)n2ccc3cc(S(=O)(=O)Nc4nccs4)ccc32)cc1` [Compound 187], the IC50 was under 2000 nM.

On to `O=C(Cc1ccccc1)N1CCc2cc(S(=O)(=O)Nc3nccs3)ccc21` [Compound 188], for which the IC50 was under 2000 nM.

For `O=C(CCc1ccccc1)n1ccc2cc(S(=O)(=O)Nc3nccs3)ccc21` [Compound 189], the IC50 is under 2000 nM.

Regarding `Cc1ccc(OCC(=O)N2Cc3ccc(S(=O)(=O)Nc4nccs4)cc3C2)cc1C` [Compound 190], the concentration for half-maximal inhibition (IC50) is under 2000 nM.

Compound `Cc1ccc(C(=O)n2ccc3cc(S(=O)(=O)Nc4nccs4)ccc32)cc1Cl` [Compound 191] came in with an IC50 of over 5000 nM.

The compound `COc1cccc(CCC(=O)N2CCc3cc(S(=O)(=O)Nc4nccs4)ccc32)c1` [Compound 192] gave an IC50 of under 2000 nM.

Turning to `COc1ccc(CC(=O)N2Cc3ccc(S(=O)(=O)Nc4nccs4)cc3C2)cc1` [Compound 193], the IC50 lay within 2000 to 5000 nM.

In turn, `O=C(COc1ccnc2c(C(F)(F)F)cccc12)N1CCc2cc(S(=O)(=O)Nc3nccs3)ccc21` [Compound 194] showed an IC50 of under 2000 nM.

The compound `Cc1ccc(F)c(C(=O)n2ccc3cc(S(=O)(=O)Nc4nccs4)ccc32)c1` [Compound 195] yielded an IC50 of 2000 to 5000 nM.

In turn, `O=C(Cc1ccc(F)cc1F)N1CCc2cc(S(=O)(=O)Nc3nccs3)ccc21` [Compound 196] came in with an IC50 of under 2000 nM.

Take `O=C(CCc1ccccc1)N1CCc2cc(S(=O)(=O)Nc3nccs3)ccc21` [Compound 197]: the IC50 is under 2000 nM.

`O=C(CNc1cccc(F)c1)N1CCc2cc(S(=O)(=O)Nc3nccs3)ccc21` [Compound 198] had an IC50 of under 2000 nM.

Consider `O=C(COc1ccccc1)N1Cc2ccc(S(=O)(=O)Nc3nccs3)cc2C1` [Compound 199], for which the IC50 was under 2000 nM.

As to `O=C(COc1ccc(F)c(Cl)c1)N1Cc2ccc(S(=O)(=O)Nc3ncns3)cc2C1` [Compound 200], the IC50 is under 2000 nM.

With `CC(C(=O)n1ccc2cc(S(=O)(=O)Nc3nccs3)ccc21)n1ccc2ccccc21` (stereo not drawn) [Compound 201], the IC50 was over 5000 nM.

In the case of `C[C@H](C(=O)N1CCc2cc(S(=O)(=O)Nc3ncns3)ccc21)n1ccc2ccccc21` [Compound 202], the IC50 was under 2000 nM.

`C[C@@H](C(=O)N1Cc2ccc(S(=O)(=O)Nc3ccncn3)cc2C1)n1ccc2c(F)cccc21` [Compound 203] came in with an IC50 of over 5000 nM.

In turn, `CC(C(=O)N1CCc2cc(S(=O)(=O)Nc3nccs3)ccc21)n1ccc2ccccc21` (stereo not drawn) [Compound 204] showed an IC50 of under 2000 nM.

Compound `O=C(CN1CCCc2cc(Cl)ccc21)N1CCc2cc(S(=O)(=O)Nc3ncns3)ccc21` [Compound 205] gave an IC50 of under 2000 nM.

Turning to `CC(C)(C)c1ccc(OCC(=O)N2CCCc3cc(S(=O)(=O)Nc4nccs4)ccc32)cc1` [Compound 206], the IC50 is under 2000 nM.

`C[C@H](C(=O)N1Cc2ccc(S(=O)(=O)Nc3ncns3)cc2C1)n1ccc2ccccc21` [Compound 207]: the IC50 is under 2000 nM.

Take `Cc1ccnc(NS(=O)(=O)c2ccc3c(c2)CCN3C(=O)CCCOc2ccc(Cl)cc2Cl)n1` [Compound 208]: the IC50 was over 5000 nM.

`O=C(CCn1ccc2cc(Cl)ccc21)N1CCc2cc(S(=O)(=O)Nc3nccs3)ccc21` [Compound 209] registered a half-inhibitory concentration (IC50) of under 2000 nM.

In another assay the target is NaV1.9 (Homo sapiens, UniProt Q9UI33).
NaV1.9, sequence (Q9UI33 whole entry, looked up): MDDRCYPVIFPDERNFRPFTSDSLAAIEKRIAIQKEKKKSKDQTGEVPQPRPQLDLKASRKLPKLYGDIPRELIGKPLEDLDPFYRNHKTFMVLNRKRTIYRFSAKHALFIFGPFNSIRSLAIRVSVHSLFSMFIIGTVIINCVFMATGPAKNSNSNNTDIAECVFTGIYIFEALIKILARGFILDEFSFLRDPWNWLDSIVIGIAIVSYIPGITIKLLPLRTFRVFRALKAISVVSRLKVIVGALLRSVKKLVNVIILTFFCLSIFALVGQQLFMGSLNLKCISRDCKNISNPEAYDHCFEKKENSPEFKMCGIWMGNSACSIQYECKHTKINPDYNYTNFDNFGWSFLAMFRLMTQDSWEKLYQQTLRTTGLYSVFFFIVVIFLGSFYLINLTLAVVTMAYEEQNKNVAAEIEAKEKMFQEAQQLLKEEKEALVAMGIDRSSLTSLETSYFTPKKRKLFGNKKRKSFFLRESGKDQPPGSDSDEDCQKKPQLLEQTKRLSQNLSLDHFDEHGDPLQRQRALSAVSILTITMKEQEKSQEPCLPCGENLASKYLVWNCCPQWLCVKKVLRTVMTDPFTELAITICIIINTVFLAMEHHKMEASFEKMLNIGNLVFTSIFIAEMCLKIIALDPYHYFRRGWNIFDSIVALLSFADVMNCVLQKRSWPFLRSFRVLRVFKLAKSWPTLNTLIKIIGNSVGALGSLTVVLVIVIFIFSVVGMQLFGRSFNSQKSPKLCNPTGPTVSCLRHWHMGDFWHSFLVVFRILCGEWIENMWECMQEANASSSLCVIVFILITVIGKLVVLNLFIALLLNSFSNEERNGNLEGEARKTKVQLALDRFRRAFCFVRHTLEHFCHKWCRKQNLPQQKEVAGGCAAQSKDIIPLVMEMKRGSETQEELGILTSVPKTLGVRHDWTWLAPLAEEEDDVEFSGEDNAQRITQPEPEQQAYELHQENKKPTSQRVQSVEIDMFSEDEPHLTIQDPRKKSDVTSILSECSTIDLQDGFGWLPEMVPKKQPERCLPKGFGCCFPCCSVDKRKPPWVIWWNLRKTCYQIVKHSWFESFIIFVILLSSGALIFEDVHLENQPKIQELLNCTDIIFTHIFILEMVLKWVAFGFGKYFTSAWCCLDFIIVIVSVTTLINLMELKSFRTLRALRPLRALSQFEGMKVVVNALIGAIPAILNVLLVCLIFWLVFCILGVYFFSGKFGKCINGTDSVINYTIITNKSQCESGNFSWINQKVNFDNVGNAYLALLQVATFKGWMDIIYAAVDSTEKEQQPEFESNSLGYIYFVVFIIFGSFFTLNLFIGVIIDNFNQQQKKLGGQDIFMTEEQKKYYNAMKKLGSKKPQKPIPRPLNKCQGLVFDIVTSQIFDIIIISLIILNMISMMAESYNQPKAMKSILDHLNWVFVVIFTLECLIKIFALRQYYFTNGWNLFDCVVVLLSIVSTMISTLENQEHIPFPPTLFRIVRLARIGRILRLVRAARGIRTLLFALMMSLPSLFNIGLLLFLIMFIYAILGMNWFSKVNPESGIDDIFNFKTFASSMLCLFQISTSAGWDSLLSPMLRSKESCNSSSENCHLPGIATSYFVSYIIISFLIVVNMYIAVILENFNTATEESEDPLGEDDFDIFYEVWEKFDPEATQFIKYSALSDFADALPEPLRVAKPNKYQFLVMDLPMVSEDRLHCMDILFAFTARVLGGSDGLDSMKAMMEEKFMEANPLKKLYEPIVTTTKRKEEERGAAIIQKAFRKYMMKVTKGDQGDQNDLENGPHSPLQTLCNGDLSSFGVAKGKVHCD
Test: not given
As to conditions: read-out: TTX IC50; cited from earlier work.
On to `NC1=N[C@H](O)[C@H]2[C@H]3O[C@]4(O)O[C@@H]([C@@H](O)[C@@]2(N1)[C@@H]4O)[C@]3(O)CO` [TTX, tetrodotoxin], for which the IC50 is 1000 nM.
